IC50, solubility and MIC data for 1 substance are collected here from article PMC7816196, “Antitubercular 2-Pyrazolylpyrimidinones: Structure–Activity Relationship and Mode-of-Action Studies” (Journal of Medicinal Chemistry, 2021).

Where two headings read alike, the source gives them in different places.

One series concerns CHO cell-line. Description: Cytotoxicity, MTT assay, CHO cells. The settings on record: read-out: Cytotoxicity (CHO IC50). (Tetrazolium dyes change colour on reduction, which living cells bring about.)
Series [1] in a line: Kinetic aqueous solubility at pH 7.4. The class given is physicochemical. Particulars: aqueous (kinetic) solubility at pH 7.4; read-out: Solubility. The method, then:
3) In vitro ADME - assays
The kinetic solubility assay was p erfo rmed using a miniaturised shake flask method. 10 mM stock solutions of each of the test compounds were used to prepare calibration standards (10-220 µM) in DMSO. The same 10 mM stock soluti ons were accurately dispensed in duplicat e into 96-well plates and the DMSO dried down (MiVac GeneVac, 90 min, 37 °C). Thereafter, the samples were reconstituted (200 µM) in phosphate buffered saline (pH 7. 4) and shaken (20 hours,25 °C). The solutions were centrifuged, and the supernatant was an alysed by means of HPLC-DAD (Agilent 1200 Rapid Resolution HPLC with a diode array detector). Best fit calibration curves were constructed using the calibration standards, which were used to determine the aqueous samples’ solubility.4
The metabolic stability assay was performed in dup licate in a 96-well micro t itre plate. The test compounds (0.1 µM) were incubated individually in mouse, rat and pooled human liver microsomes (final protei n concentration of 0.4 m g/mL; XenoTech, Lenexa, KS), suspended in 0.1M phosphate buffer (pH 7.4) for predetermined time points, in the presence and abs ence of the cofactor NADPH (1 mM). Reactions were quenched by adding 300 µL of ice cold acetonitrile containing internal standard (carbamazepine, 0.0236 µg/mL). The samples were centrifuged and test in the supernatant were an alysed by means of LC-MS/MS ((Agilent Rapid Resolution HPLC, AB SCIEX 4500 MS). The rel ative loss of parent compound over time w as monitored and plots (concentration vs. time) were prepared per compound to determine the first order rate constant for compound depletion. This was in turn used to calculate h alf-life, in vitro intrinsic clearance and in vivo hepatic extraction ratio. Metabolite search es were not conducted during the met abolic stability assay.5

In another series the test system is Mtb H37Rv. Description: MIC against Mtb H37Rv, Alamar Blue broth microdilution. Type of series: cell-based, Mycobacterium tuberculosis. (In general: Resazurin is reduced to fluorescent resorufin, in cell work by metabolically active cells.)

Turning to “6-(3,5-Dimethyl-1H-pyrazol-1-yl)-4-phenylpyridin-2(1H)-one [Compound 5]”, the IC50 (as a rule, the concentration that inhibits the measured activity by half) in the series with CHO cell-line was above 50 µM. The solubility (as a rule, the dissolved amount per volume that the medium holds) at 20 h in series [1] was found to be 185 µM. Also, the MIC (in general, the least concentration at which growth counts as inhibited) is listed as above 50 µM with Mtb H37Rv and above 50 µM against Mtb H37Rv (supplement csv, medium not stated).
